Reference: PubChem BioAssay (NCI)
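Cultured in 96-well plates, cells were exposed to test compound for 48 hours across five concentrations. Abbreviation: GI50, concentration required for 50% inhibition of growth. TGI is the concentration that stops growth completely.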

What was measured:
Test in all cases: DTP human tumour cell line panel, 48 h
SNB-75 CNS = test system: SNB-75 CNS
NCI-H460 lung = test system: NCI-H460 lung
OVCAR-8 ovarian = test system: OVCAR-8 ovarian
SF-295 CNS = test system: SF-295 CNS
K-562 leukemia = test system: K-562 leukemia
EKVX NSCLC = test system: EKVX NSCLC
SK-MEL-2 melanoma = test system: SK-MEL-2 melanoma
SW-620 colon = test system: SW-620 colon
RPMI-8226 leukemia = test system: RPMI-8226 leukemia
KM12 colon = test system: KM12 colon

SMILES | TGI (SNB-75 CNS) | TGI (NCI-H460 lung) | TGI (OVCAR-8 ovarian) | TGI (SF-295 CNS) | TGI (K-562 leukemia) | TGI (EKVX NSCLC) | TGI (SK-MEL-2 melanoma) | TGI (SW-620 colon) | GI50 (NCI-H460 lung) | GI50 (OVCAR-8 ovarian) | GI50 (RPMI-8226 leukemia) | TGI (RPMI-8226 leukemia) | GI50 (SF-295 CNS) | GI50 (K-562 leukemia) | GI50 (EKVX NSCLC) | GI50 (SK-MEL-2 melanoma) | GI50 (SW-620 colon) | GI50 (KM12 colon) | TGI (KM12 colon) | GI50 (SNB-75 CNS)
CN(C)C=NC1CCC(C(C)(C)C)CC1 (stereo unspecified) | 34.9 µM | 35.1 µM | 28.9 µM | 31.2 µM | 45.1 µM | 59.8 µM | 35.4 µM | 34.4 µM | – | – | – | – | – | – | – | – | – | – | – | –
CC[C@]1(O)CC2CN(CCc3c([nH]c4ccccc34)[C@@](C(=O)OC)(c3cc4c(cc3OC)N(C=O)[C@H]3[C@@](O)(C(=O)OC)[C@H](OC(C)=O)[C@]5(CC)C=CCN6CC[C@]43[C@@H]65)C2)C1 (stereo partly specified) | – | > 50 µM | > 50 µM | 1.35 µM | > 50 µM | > 50 µM | 4.16 µM | > 50 µM | < 0.005 µM | 0.00828 µM | < 0.005 µM | 17.8 µM | < 0.005 µM | < 0.005 µM | > 30.8 µM | < 0.005 µM | < 0.005 µM | < 0.005 µM | > 50 µM | –
CCCCCCCCCC(CCCC(O)CC(=O)O)OC1OC(COC2OC(C)C(OC(C)=O)C(O)C2O)C(O)C(O)C1OC1OC(CO)C(O)C(O)C1OC1OC(C)C(OC(=O)CC(C)C)C(O)C1O (stereo unspecified) | > 35 µM | > 35 µM | > 35 µM | > 35 µM | > 35 µM | > 35 µM | – | > 35 µM | > 35 µM | > 35 µM | > 35 µM | > 35 µM | > 35 µM | > 35 µM | > 35 µM | – | > 35 µM | > 35 µM | > 35 µM | > 35 µM
COc1ccc(C(=O)O[C@H]2[C@H](O[C@H]3[C@@H](O)COC(O[C@H]4C[C@H]5[C@@H]6CC=C7C[C@@H](O)CC[C@]7(C)[C@H]6CC[C@]5(C)[C@H]4[C@H](C)C(=O)CCC(C)C)[C@@H]3OC(C)=O)OC[C@@H](O)[C@@H]2O)c(C)c1 (stereo partly specified) | 13.2 µM | 3.23 µM | > 100 µM | < 0.01 µM | 13.9 µM | 26.9 µM | 3.23 µM | 0.187 µM | < 0.01 µM | 20.1 µM | – | – | < 0.01 µM | < 0.01 µM | 1.26 µM | < 0.01 µM | < 0.01 µM | 0.0674 µM | 21.3 µM | < 0.01 µM
O=Cc1c(-c2ccccc2)[nH]c2ccccc2c1=O | 86.4 µM | > 100 µM | > 100 µM | > 100 µM | – | > 100 µM | > 100 µM | > 100 µM | – | – | – | 85.6 µM | – | – | – | – | – | – | > 100 µM | –
Cc1cc(=O)n(-c2c(C)cccc2Cl)c(/C=C(\O)c2ccncc2)n1 | > 100 µM | > 100 µM | > 100 µM | > 100 µM | > 100 µM | > 100 µM | > 100 µM | > 100 µM | – | – | – | – | – | – | – | – | – | – | > 100 µM | –
CCCCCCCCCCCCCCCCCCOc1ccccc1CC(=O)OCC[N+](CC)(CC)CC | 4.23 µM | 6.34 µM | 8.3 µM | 5.11 µM | 50 µM | 8.44 µM | 3.13 µM | 7.33 µM | 1.73 µM | 1.69 µM | – | – | 1.27 µM | 1.5 µM | 2.15 µM | 1.28 µM | 1.82 µM | 1.42 µM | 3.86 µM | 0.968 µM
C/C(=N\n1c(O)c(C#N)cc(C#N)c1=O)c1ccncc1 | – | > 100 µM | > 100 µM | > 100 µM | > 100 µM | > 100 µM | > 100 µM | > 100 µM | > 100 µM | > 100 µM | > 100 µM | > 100 µM | > 100 µM | > 100 µM | > 100 µM | > 100 µM | > 100 µM | > 100 µM | > 100 µM | –
CC1CCC(=O)C(C(O)CC2CC(=O)N(c3ccccc3)C(=O)C2)C1 (stereo unspecified) | > 100 µM | > 100 µM | > 100 µM | > 100 µM | > 100 µM | > 100 µM | – | > 100 µM | – | – | – | > 100 µM | – | – | – | – | – | – | > 100 µM | –
CCCCCC[C@@H](C)Nc1nc2ccccc2c2occc12 | – | > 100 µM | > 100 µM | 19.5 µM | > 100 µM | 5 µM | 20.5 µM | 26.5 µM | 4.19 µM | 20.7 µM | 1.47 µM | > 100 µM | 1.99 µM | 19.9 µM | 0.39 µM | 1.32 µM | 11.2 µM | 14 µM | 34.4 µM | –
CCOc1ccc(OCC)c([P+](c2ccccc2)(c2ccccc2)c2ccccc2)c1 | 10.6 µM | 11.6 µM | 12.5 µM | 6.38 µM | 17 µM | 16.5 µM | – | 13.1 µM | – | – | – | 2.36 µM | – | – | – | – | – | – | 10.1 µM | –
O=C1c2ccccc2C(=O)c2c1ccc1c(=O)n(-c3ccccc3C(F)(F)F)nnc21 | 15.5 µM | 5.07 µM | > 100 µM | 7.02 µM | > 100 µM | 6.43 µM | 7.61 µM | > 100 µM | 1.97 µM | 2.49 µM | – | – | 2.59 µM | 1.76 µM | 2.36 µM | 2.64 µM | 3.43 µM | 1.88 µM | 5.5 µM | 1.56 µM
CCN(CC)c1ccc(C2NC(=O)c3ccccc3N2)cc1 (stereo unspecified) | > 20.3 µM | 7.14 µM | > 100 µM | > 86.3 µM | > 100 µM | > 100 µM | > 100 µM | > 100 µM | – | – | – | > 100 µM | – | – | – | – | – | – | – | –
O=C(/C=C/C(Cl)(Cl)Cl)Nc1ccc(Cl)cc1 | 11.1 µM | 40 µM | > 77.6 µM | 28.8 µM | – | 13.7 µM | 18.1 µM | 14 µM | – | – | – | 3.85 µM | – | – | – | – | – | – | 6.07 µM | –
CC(=O)Nc1ccc(/C=C2\N=C(c3ccccc3)OC2=O)cc1 | > 100 µM | > 100 µM | – | > 100 µM | > 100 µM | > 100 µM | > 100 µM | > 100 µM | – | – | – | > 100 µM | – | – | – | – | – | – | > 100 µM | –
COC1OC(CBr)C(OC(=O)c2ccccc2)C(OS(=O)(=O)c2ccc(C)cc2)C1Br (stereo unspecified) | – | > 100 µM | > 100 µM | > 100 µM | > 100 µM | > 100 µM | > 100 µM | > 100 µM | – | – | – | > 100 µM | – | – | – | – | – | – | > 100 µM | –
